Assay results from US8642559B2, “C-terminal domain truncation of mGluR1α by calpain and uses thereof” (priority 2006, dated 2014).
Where a SMILES comes first, the peptide text is derived from it. The star is where a group is joined. Cbz = O=C(OCc1ccccc1)*

Legend:
mGluR1α [1] = assay: Glutamate/NMDA-induced C-terminal truncation of mGluR1α in cultured cortical neurons (immunoblot); format: cell-based; conditions: for block of glutamate-induced truncation of mGluR1α: glutamate 100 μM, antagonist 100 μM
Source text: Total cell lysates were separated by SDS-PAGE and probed with an antibody against the carboxyl terminus (residue 1142-1160) of mGluR1α. […] Total cell lysates were probed with an anti-myc antibody. […] Total cell lysates were probed with antibodies against mGluR5, G1uR2/3 and VGluT1 respectively.
Total cell lysate was collected immediately after treatment and subjected to SDS-PAGE and immunoblotting with an antibody against the carboxyl terminus (residues 1142-1160) of mGluR1α (FIG. 2A). […] Neurons were transfected with a calcium phosphate precipitation method modified for high transfection rate (Jian et al., Gene Ther 11:1301-1311, 2004).
Cortical neurons were treated with NMDA at the indicated concentrations for 1 h or treated with NMDA (10 μM) for the indicated times. Total cell lysates were separated by SDS-PAGE and probed with antibodies against mGluR1α1142-1160, Results were normalized over control values and are means±s.e.m. of 4 experiments.
To determine whether activation of mGluR1α itself was required for the truncation, two distinct mGluR1α antagonists were applied.
To further characterize NMDA-induced mGluR1α truncation, the concentration- and time-dependencies of the effects of NMDA were studied. Cortical neurons were first incubated with different concentrations of NMDA for a fixed period of time (1 hour) (FIG. 3F). […] In a following experiment, cortical neurons were incubated with 10 μM NMDA for different durations ranging from 1 to 60 min (FIG. 3G).
Cortical neurons were treated with NMDA (10 μM, 1 h). Total cell lysates were separated by SDS-PAGE and probed with antibodies against spectrin and mGluR1α1142-1160, respectively. Only the degradation bands of spectrin (spectrin DB, at ˜145 KD) are shown. […] In FIG. 4C, purified myc-mGluR1α was digested with μ-calpain at the indicated concentrations (U/ml) for 30 min. The digested material was processed for SDS-PAGE and subjected to silver staining or immunoblots with anti-myc or anti-mGluR1α1142-1160 antibodies. […] The 1st lane was the myc-mGluR1α immunoprecipitated from 293 cells; the 2nd and 3rd lanes were immunoprecipitated myc-mGluR1α digested with indicated concentration of calpain. […] FIG. 4F is the alignment of mGluR1 (902-941) and mGluR5 (889-927) surrounding the calpain cleavage site.
In this set of experiments, we determined which protease(s) mediated NMDA-induced truncation of mGluR1α. […] Cortical neurons were pretreated with a calpain inhibitor, the cell-permeable calpain-inhibitor III, or the caspase inhibitor cpm-VAD-CHO for 2 hours and then incubated in the absence or presence of 100 µM NMDA for 1 hour. […] To further confirm calpain activation by NMDA under our experimental conditions, we determined the levels of the calpain-specific spectrin degradation fragments.

myc-mGluR1α [2] = target: T1, myc-mGluR1α (Rattus norvegicus, UniProt P23385); assay: DHPG-induced calcium transients in HEK293 cells transfected with myc-mGluR1α (calcium imaging); format: cell-based; conditions: 100 μM DHPG; myc-mGluR1α-transfected HEK293 cells
T1 sequence (P23385 19-1199): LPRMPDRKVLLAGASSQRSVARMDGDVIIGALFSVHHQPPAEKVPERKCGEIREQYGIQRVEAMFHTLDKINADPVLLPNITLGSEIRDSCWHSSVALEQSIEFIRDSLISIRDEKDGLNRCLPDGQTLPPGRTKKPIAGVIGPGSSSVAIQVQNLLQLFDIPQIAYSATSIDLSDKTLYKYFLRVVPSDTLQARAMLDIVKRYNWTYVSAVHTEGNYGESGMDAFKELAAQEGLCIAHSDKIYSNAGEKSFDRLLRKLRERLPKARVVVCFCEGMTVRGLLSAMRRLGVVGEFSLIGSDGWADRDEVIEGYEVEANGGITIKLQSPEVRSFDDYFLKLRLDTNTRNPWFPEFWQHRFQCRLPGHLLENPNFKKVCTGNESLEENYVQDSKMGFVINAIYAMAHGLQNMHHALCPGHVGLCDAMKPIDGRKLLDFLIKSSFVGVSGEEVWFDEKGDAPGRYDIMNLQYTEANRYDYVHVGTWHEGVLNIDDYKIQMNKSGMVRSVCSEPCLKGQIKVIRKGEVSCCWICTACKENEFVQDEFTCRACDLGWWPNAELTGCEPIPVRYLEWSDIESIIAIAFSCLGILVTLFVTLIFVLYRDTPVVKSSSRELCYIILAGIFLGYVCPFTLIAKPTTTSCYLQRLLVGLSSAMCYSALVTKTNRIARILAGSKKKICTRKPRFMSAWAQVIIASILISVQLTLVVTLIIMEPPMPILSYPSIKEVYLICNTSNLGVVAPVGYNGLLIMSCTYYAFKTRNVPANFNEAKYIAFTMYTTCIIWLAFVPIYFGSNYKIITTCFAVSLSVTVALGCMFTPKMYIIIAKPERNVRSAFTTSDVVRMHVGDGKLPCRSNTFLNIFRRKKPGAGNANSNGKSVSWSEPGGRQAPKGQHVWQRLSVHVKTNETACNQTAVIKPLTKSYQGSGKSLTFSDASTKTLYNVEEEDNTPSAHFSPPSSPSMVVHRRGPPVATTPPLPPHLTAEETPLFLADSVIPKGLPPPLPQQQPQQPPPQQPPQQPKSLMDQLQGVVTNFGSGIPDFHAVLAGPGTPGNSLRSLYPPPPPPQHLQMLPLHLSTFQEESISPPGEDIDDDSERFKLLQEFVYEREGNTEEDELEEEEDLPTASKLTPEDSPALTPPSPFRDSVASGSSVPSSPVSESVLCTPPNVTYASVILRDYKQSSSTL
Source text: (§1) In this set of experiments, HEK293 cells were co-transfected with DsRed (red fluorescent protein) and wild-type myc-mGluR1α or truncated myc-mGluR1α936Δ. The mGluRI agonist DHPG was used to induce mGluR1α-mediated calcium transients. In FIG. 5A, photos in the left show the expression of DsRed, labeling transfected cells; photos in the middle illustrate the fluorescent signal from the calcium indicator Oregon green 488 BAPTA-1 AM before and after DHPG application; photos in the right are obtained by subtracting “before DHPG” from “after DHPG”, thus representing DHPG-induced calcium transients.
(§2) The main signaling mechanism activated by mGluR1α consists of PI hydrolysis through G-protein and phospholipase C, which eventually leads to calcium release from internal calcium stores. Therefore we first performed calcium imaging to determine whether mGluR1α remains functional following C-terminal truncation. Wild-type mGluR1 (myc-mGluR1α) or the truncated form (myc-mGluR1α936Δ) was cotransfected with DsRed into HEK293 cells. Forty-eight hours after transfection, cells were loaded with a calcium reporter, Oregon green 488 BAPTA-1 AM (0.63% in extracellular solution).

myc-mGluR1α [3] = assay: as above; format: cell-based; conditions: 100 μM DHPG; untransfected cells
Source text: as §1, §2

myc-mGluR1α [4] = target: T1, myc-mGluR1α; assay: DHPG-induced whole-cell currents in HEK293 cells transfected with myc-mGluR1α; format: cell-based; conditions: 100 μM DHPG
Description: (§3) Representative current traces recorded from HEK293 cells transfected with either myc-mGluR1α (left panel) or myc-mGluR1α936Δ (right panel) and GIRK1, GIRK2 (top) or TRPC1 (bottom). DHPG (100 μM in extracellular solution) was applied using a fast perfusion system for the duration indicated by the scale bars. Each trace is the average of 5 continuous sweeps. The bar graphs represent the means±S.E.M. of DHPG-induced current amplitude recorded in cells transfected with myc-mGluR1α or myc-mGluR1α936Δplus GIRK1, GIRK2 (top right) or TRPC1 (bottom right) (n=3-7). In FIG. 6B, cortical neurons were pre-treated with NMDA (50 1μM, 1 h). Two hours after washing NMDA, neurons were treated with the mGluR1 agonist DHPG (50 μM) for 10 min in the absence or presence of LY367385. Total cell lysates were collected and probed with anti-Phospho Akt (Ser473) antibody.
(§4) Because activation of mGluR1α can also stimulate non-selective cation excitatory postsynaptic conductances (EPSCs), we therefore analyzed mGluR1α-dependent currents before and after calpain-mediated truncation. We transfected HEK293 cells with either myc-mGluR1α or myc-mGluR1α936Δ plus GIRK1, GIRK2 or TRPC1.

myc-mGluR1α936Δ = myc-mGluR1α936Δ (Rattus norvegicus, UniProt P23385); assay: DHPG-induced whole-cell currents in HEK293 cells transfected with myc-mGluR1α936Δ; format: cell-based; conditions: 100 μM DHPG
myc-mGluR1α936Δ, sequence (P23385 19-936 limits assumed, stated change not applied): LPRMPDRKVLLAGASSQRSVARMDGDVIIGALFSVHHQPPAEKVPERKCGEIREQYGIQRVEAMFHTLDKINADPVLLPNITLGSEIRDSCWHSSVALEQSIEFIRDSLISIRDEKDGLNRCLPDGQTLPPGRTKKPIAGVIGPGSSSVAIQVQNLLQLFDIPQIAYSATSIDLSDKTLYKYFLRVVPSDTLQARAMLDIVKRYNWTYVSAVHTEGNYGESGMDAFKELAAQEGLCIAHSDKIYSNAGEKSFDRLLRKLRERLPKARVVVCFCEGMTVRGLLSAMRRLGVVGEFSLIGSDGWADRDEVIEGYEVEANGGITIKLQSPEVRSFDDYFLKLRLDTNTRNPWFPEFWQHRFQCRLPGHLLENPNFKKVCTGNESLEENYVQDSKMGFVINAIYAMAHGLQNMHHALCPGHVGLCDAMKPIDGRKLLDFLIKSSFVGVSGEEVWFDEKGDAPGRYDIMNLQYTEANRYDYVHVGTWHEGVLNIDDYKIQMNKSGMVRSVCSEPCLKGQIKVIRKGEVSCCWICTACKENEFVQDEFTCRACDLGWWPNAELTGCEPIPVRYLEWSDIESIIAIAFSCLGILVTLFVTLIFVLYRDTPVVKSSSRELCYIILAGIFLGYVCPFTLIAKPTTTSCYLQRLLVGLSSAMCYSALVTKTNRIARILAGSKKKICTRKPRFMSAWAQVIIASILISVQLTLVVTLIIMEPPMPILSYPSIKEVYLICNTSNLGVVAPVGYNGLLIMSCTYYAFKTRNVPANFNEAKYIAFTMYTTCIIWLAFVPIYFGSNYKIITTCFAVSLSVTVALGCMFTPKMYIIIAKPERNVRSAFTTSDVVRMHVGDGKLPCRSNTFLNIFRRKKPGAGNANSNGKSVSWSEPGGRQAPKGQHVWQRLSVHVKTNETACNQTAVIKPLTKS
Description: as §3, §4

Phospho Akt (Ser473) = assay: Akt phosphorylation (Ser473) in cortical neurons (Western blot); format: cell-based; conditions: DHPG 50 μM; for phosphorylated Akt levels: 10 min
Description: as §3, with “antibody. Without pretreatment with NMDA, DHPG increased the levels of Phospho-Akt (* p<0.05), an effect blocked by LY367385.” for “antibody.”
As reported in previous studies, mGluR1 activation can stimulate the PI3K-Akt signaling pathway through the mGluRI-Homer-PIEL-PI3K signaling complex. Since the Homer-binding domain of mGluR1α is located in the extreme C-terminus, which is removed after calpain-mediated truncation, it was interesting to determine whether this signaling mechanism remained functional. We first induced mGluR1α truncation by treating cortical neurons with 50 μM NMDA for 1 hour. Two hours after washing out NMDA, neurons were incubated with the mGluRI agonist DHPG (50 μM) for 10 min. Neurons were then lysed and levels of phosphorylated Akt were determined on Western blots. Consistent with a previous study, in cortical neurons that were not pre-treated with NMDA, DHPG induced an increase in phosphorylated Akt levels (p<0.05, n=4, Student's t-test for Control vs. DHPG), an effect which was blocked by the mGluR1 selective antagonist LY367385 (p<0.05, n=4, for DHPG+LY367385 vs. DHPG) (FIG. 6B). […] Thus, mGluR1α-PI3K-Akt signaling pathway was disrupted by calpain-mediated mGluR1α truncation.

cortical neurons = assay: NMDA/DHPG neuronal toxicity in cortical neurons (EthD-1/Calcein AM live/dead); format: cell-based; conditions: for cell death: 24 hours after
Source text: In FIGS. 8a and b, cortical neurons were co-transfected with green fluorescent protein (GFP) and vector DNA, myc-mGluR1α or myc-mGluR1α936Δ, respectively. […] Twelve hours later, neurons were stained with EthD-1 to label dead cells. Arrowheads in FIG. 8a indicate EthD-1 positive GFP-expressing neurons. * p<0.05. FIGS. 8c and d are representative photos and bar graphs showing differential roles of endogenous mGluR1 in neuronal toxicity before and after NMDA-induced truncation. Cortical neurons were treated as indicated and were stained with EthD-1 (for dead cells) and calcein AM (for live cells) 24 hours later. * p<0.001.
We then tested whether calpain-mediated truncation of endogenous mGluR1α also alters its roles in excitotoxicity. We used NMDA to elicit mGluR1α truncation and evaluated the roles of mGluR1 in neuronal toxicity by applying DHPG before and after truncation. Fourteen DIV cortical neurons cultured on 18×18 mm coverslips were divided into 6 groups, which received the following treatments, respectively: 1) “Control”: vehicle; 2) “NMDA”: 100 μM NMDA for 1 hour; 3) “DHPG before NMDA”: DHPG, 100 μM, for 1 hour, followed by 100 μM NMDA for 1 hour; 4) “DHPG after NMDA”: NMDA, 100 μM, for 1 hour, followed by 100 μM DHPG for 1 hour; 5) “DHPG+LY before NMDA”: 100 μM DHPG was co-applied with 100 μM LY367385 for 1 hour and followed by 100 μM NMDA for 1 hour; 6) “DHPG+LY after NMDA”: NMDA 100 μM for 1 hour, followed by 100 μM DHPG co-applied with 100 μM LY367385. Twenty-four hours after treatment, all neurons were stained for 20 minutes with 0.5 μM EthD-1 to label dead cells and 2 μM Calcein AM to label live cells. After three washes with culture medium, coverslips were mounted and one microscopy photo was immediately taken from the center area of each coverslip. EthD-1 and Calcein AM positive cells on each photo were then counted. The percentage of cell death was calculated as the number of EthD-1 positive cell/(number of EthD-1 positive cell+number of Calcein AM positive cell)*100%.

spectrin = assay: NMDA-induced calpain-specific spectrin degradation (145 kD fragment) in cortical neurons; format: cell-based; conditions: NMDA 10 μM, 1 h
Description: In this set of experiments, we determined which protease(s) mediated NMDA-induced truncation of mGluR1α. […] Cortical neurons were pretreated with a calpain inhibitor, the cell-permeable calpain-inhibitor III, or the caspase inhibitor cpm-VAD-CHO for 2 hours and then incubated in the absence or presence of 100 M NMDA for 1 hour. […] To further confirm calpain activation by NMDA under our experimental conditions, we determined the levels of the calpain-specific spectrin degradation fragments.

mGluR1α [5] = assay: In vivo truncation of mGluR1α in hippocampus after kainic acid injection; conditions: kainic acid 30 mg/kg s.c., mice
Description: (§5) The tat-peptide was injected i.p. 90 min before kainic acid injection. Note that the peptide had no effect on seizure intensity (bottom left).
The objective of this set of experiments was to verify that the feedback mechanism of the present invention could take place in vivo and participate in excitotoxicity. We used the kainic acid model of excitotoxicity, as this model has been widely used to study the mechanisms underlying in vivo excitotoxicity (Wang et al. Mol Neurobiol 31:3-16, 2005). Mice were injected with kainic acid and sacrificed at different times after injection. Levels of mGluR1α were determined in hippocampus with both Western blots and immunohistochemistry (FIG. 10).

hippocampal neurons = assay: Kainic acid-induced neuronal damage (silver staining) and seizures in mice; format: in vivo; conditions: kainic acid 30 mg/kg s.c., mice, 7 days, silver staining
Description: as §5
They were sacrificed after 7 days and brains processed for silver staining, a marker of cell damage. Note the heavy labeling of the pyramidal cell layer in the KA alone group.
The effect of the tat-mGluR1 peptide on kainic acid-induced neuronal damage was also evaluated.

[6] = 100 μM LY367385 co-applied with 100 μM DHPG

N[C@@H](CCCP(=O)(O)O)C(=O)O [APV]
block of glutamate-induced truncation of mGluR1α (mGluR1α [1]; 1 h): completely blocked

N#Cc1cc2[nH]c(=O)c(=O)[nH]c2cc1[N+](=O)[O-] [CNQX]
block of glutamate-induced truncation of mGluR1α (mGluR1α [1]; 1 h): had no effect

N[C@H](C(=O)O)c1cc(O)cc(O)c1 [DHPG]
calcium transient, max. ΔF/F (myc-mGluR1α [2]): 30.6±4.2%
change in fluorescent calcium signals (myc-mGluR1α [3]): no change
average amplitude of DHPG-induced whole-cell current (myc-mGluR1α [4]; myc-mGluR1α/GIRK1,2-transfected cells): −24.2±6.3 pA
mean amplitude of DHPG-induced whole-cell current (myc-mGluR1α [4]; myc-mGluR1α/TRPC1-transfected cells): −36.7±9.6 pA
mean amplitude of DHPG-induced whole-cell current (myc-mGluR1α936Δ; myc-mGluR1α936Δ/GIRK1,2-transfected cells): −1.4±0.8 pA
mean amplitude of DHPG-induced whole-cell current (myc-mGluR1α936Δ; myc-mGluR1α936Δ/TRPC1-transfected cells): −9.7±6.8 pA
phosphorylated Akt levels (Phospho Akt (Ser473); 2 h after NMDA 50 μM 1 h pre-treatment): failed to increase
phosphorylated Akt levels (Phospho Akt (Ser473); neurons not pre-treated with NMDA): increase
cell death (cortical neurons; DHPG 100 μM 1 hour after 100 μM NMDA 1 hour): 54%
cell death (cortical neurons; DHPG 100 μM 1 hour before 100 μM NMDA 1 hour): 29%

Cc1cc(C(=O)O)ccc1[C@H](N)C(=O)O [LY367385]
block of glutamate-induced truncation of mGluR1α (mGluR1α [1]; 1 h): do not block
block of DHPG-induced increase in phosphorylated Akt (Phospho Akt (Ser473); 10 min in presence of LY367385): blocked
block of the neuroprotective effect of DHPG before NMDA (cortical neurons; [6]): completely blocked
block of the neurotoxic effect of DHPG after NMDA (cortical neurons; [6]): completely blocked

C[C@H](NC(c1cccc2[nH]c(=O)c(=O)[nH]c12)P(=O)(O)O)c1ccc(Br)cc1 (some centres unmarked) [NVP-AAM077]
block of NMDA-induced truncation of mGluR1α (mGluR1α [1]; NMDA 10 μM, 1 h, NVP-AAM077 0.4 μM): not
block of NMDA-mediated spectrin degradation (spectrin; NVP-AAM077 0.4 μM): not

CC(C)[C@H](NC(=O)OCc1ccccc1)C(=O)N[C@H](C=O)Cc1ccccc1 [calpain inhibitor III] (Cbz-Val-Phe-aldehyde)
block of NMDA-induced truncation of mGluR1α (mGluR1α [1]; inhibitor pretreatment 2 hours, then NMDA 100 μM 1 h, Calpi3 10 μM): significantly blocked

CC(C(O)c1ccc(O)cc1)N1CCC(Cc2ccccc2)CC1 (centres unmarked) [ifenprodil]
block of NMDA-induced truncation of mGluR1α (mGluR1α [1]; NMDA 10 μM, 1 h, ifenprodil 10 μM): selectively blocked
block of NMDA-mediated spectrin degradation (spectrin; ifenprodil 10 μM): blocked

C=C(C)[C@H]1CN[C@H](C(=O)O)[C@H]1CC(=O)O [kainic acid]
mGluR1 truncation in hippocampus following kainic acid injection (mGluR1α [5]): rapidly truncated
neuronal damage in hippocampal pyramidal neurons (hippocampal neurons): marked damage
